Entries after “also recorded” stand apart in the source; their conditions may differ. Where a SMILES comes first, the peptide text is derived from it. [ ]: non-standard residue; d: D form. ξ: configuration not given here. Dmt = Cc1cc(O)cc(C)c1C[C@H](N)C(=O)O; ξGly(decyl) = CCCCCCCCCCC(N)C(=O)O; ξGly(octyl) = CCCCCCCCC(N)C(=O)O; ξAoc(2) = CCCCCCC(N)C(=O)O
Assays:
μ-opioid receptor = target: T1, μ-opioid receptor (Homo sapiens, UniProt P35372); experiment: Whole cell-based binding assay, displacement of 3H-DAMGO
T1 construct: SH-SY5Y cells endogenously expressing μ- and δ-opioid receptors; endogenous in cells; host or cells: SH-SY5Y cells
Method: Media was removed and cells were washed with PBS before pre-incubation in 300 μL of binding buffer. Binding studies were performed with 100 μL of appropriate concentrations of ^3H-labeled DAMGO (a selective μ-opioid receptor agonist) and 100 μL of competitor or blank in binding buffer at 37° C. for 60 min. Competition binding experiments were performed using […] of ^3H-labelled DAMGO in the absence or presence of increasing concentrations of unlabeled derivatised endomorphins or derivatised endomorphin analogs. A 1 μM excess of unlabelled DAMGO was used to determine non-specific binding. Following incubation, the cells were washed with PBS and recovered from culture plates using 500 μL of […] before transfer to scintillation vials. Liquid scintillation cocktail (Ultima Gold, Packard, Meriden, USA) was added to these vials for counting in a liquid scintillation analyser. Data are expressed as the mean±SEM of % specific binding of triplicate determinations performed on at least three independent plates of cells. Data were plotted using the one-site competition functions of the PRISM program (Graphpad Inc., San Diego, USA) (see FIGS. 1a, 1b and 7).

CCI-rats = experiment: Pain relief in CCI-rat model of neuropathic pain (von Frey paw withdrawal thresholds); format: in vivo
Plasma stability assay = format: in vitro ADME; details: male, human, plasma at 37° C.
Method: To measure the enzymatic stability of endomorphin-1 analogs in plasma, blood was taken from a healthy volunteer and the blood was centrifuged at 1700 rpm for 30 minutes to remove blood cells. The plasma was placed into a water bath heated at 37° C. and Endomorphin-1 and analog was added to give final concentrations of 0.7 mg/mL. Samples were incubated for varying time periods between 0 and 180 minutes. 50 μL of sample was taken at each time-point and 75 μL of acetonitrile was added to quench any enzyme activity. The samples were then placed on ice and upon completion of the assay, all samples were centrifuged at 9000 rpm for 3 minutes to remove all precipitated plasma proteins. The amount of intact peptide remaining in the supernatent of each sample was determined using RP HPLC by measuring the area under the curve of the peak at the appropriate retention time compared to a standard curve of concentration for each peptide (see FIG. 8).

[1] = tested on: gastrointestinal motility; experiment: Gut motility study (charcoal meal); format: in vivo, rat; details: rats
Method: Each dose of Compound 8, morphine and vehicle was administered to naïve rats as a 100 μL i.v. bolus injection via an indwelling cannula surgically implanted into the jugular vein at least 12 h prior to dose administration. Rats were anaesthetised with 3% isoflurane: 97% oxygen inhalational anaesthetic. A 1 cm incision was made on the right ventral side of the trachea. Using blunt dissection, the jugular vein was exposed and a small incision made to allow cannula insertion. The cannula was inserted into the vein, its integrity assessed, and tied into place using sterile sutures. The wound was sutured, the cannula was exteriorised at the back of the neck and secured using a metal spring. The rats were kept warm during surgical recovery. Animals were housed singly for the remainder of the experimentation period. Rats were inspected regularly from the time of surgery with respect to exploring behaviour, body weight and water intake. No adverse signs from the surgery were observed.
Charcoal meal was prepared by mixing 10% charcoal and 5% arabic gum in distilled, deionised water. Each rat received a single oral gavage of charcoal meal. Thirty minutes later the animal was euthanised using CO2 asphyxiation and the intestine was removed and measured. The distance from the pyloric sphincter to the caudal end of the charcoal and the total distance of the small intestine to the distal part of the ileum were measured in cm. Gastrointestinal motility was determined as the distance traveled by the charcoal relative to the total length of the small intestine, expressed as a percentage.
Each rat received a single bolus i.v. dose of Compound 8, morphine or vehicle. Animals received either vehicle (n=5), morphine at 1 mg/kg (n=3), 2 mg/kg (n=5), 10 mg/kg (n=5) and 30 mg/kg (n=2) or Compound 8 at 0.3 mg/kg (n=3), 1 mg/kg (n=5), 3 mg/kg (n=4), and 10 mg/kg (n=3). Thirty minutes after i.v. dosing an oral gavage of charcoal meal was administered under light (50%:50% CO2:O2) anaesthesia. Thirty minutes later the animal was euthanised via CO2 asphyxiation and the intestine was removed and the distance moved by the charcoal meal was measured.
The intestine was measured for distance of charcoal meal traveled in the small intestine and total length of small intestine. The % distance of charcoal transit was assessed relative to the total length of the small intestine. % inhibition of gastrointestinal motility by morphine or Compound 8 was calculated by the following equation: [(average % charcoal transit in vehicle rats)−(% distance charcoal transit)×100]/(average % charcoal transit in vehicle rats).

[2] = tested on: μ- and δ-opioid receptors; experiment: Cell based assay of cAMP inhibition in forskolin treated SH-SY5Y cells; details: for IC50: Efficacy SH-SY5Y cell line; for Inhibit c-AMP (%): SH-SY5Y cell line, normalised to the % of cAMP inhibition seen by native endomorphin-1
Method: SH-SY5Y cells endogenously expressing μ- and δ-opioid receptors were cultured (100 μl) in a 96 well-plate and incubated (usually overnight) until 80% confluent. Once cells were ready for assay, Endo-1, Endo-2 and derivatives/analogs were diluted in DMEM culture medium containing 30 μM forskolin. The diluted derivatised endomorphins or derivatised endomorphin analogs were then applied to separate wells for agonist studies and co-incubated for antagonist studies. Cells were incubated with derivatised endomorphins or derivatised endomorphin analogs at 37° C. for 30 minutes, medium was aspirated and cells were lysed using lysis buffer from a cAMP Biotrak EIA kit (Amersham, Buckinghamshire, UK). An anti-cAMP antibody was added to the lysate, and the mixture incubated at 4° C. for 2 hours followed by the addition of a cAMP peroxidase conjugate, and incubated at 4° C. for a further hour. A 3,3′5,5′-tetramethylbenzidine (TMB) substrate provided by the Biotrak EIA kit was then incubated with cell lysate for 1 hour and finally 1 […] was added to facilitate a colour change, which is proportional to the amount of cAMP captured. A cAMP standard curve from 0 to 3200 fmol was also generated concurrently. Plates were then read by a plate reader at 450 nm and compared back to the cAMP standard curve. All data are compared to the maximum cAMP response to forskolin and are represented as the mean+/−standard error of three experiments performed in triplicate. All data are plotted using PRISM program (GraphPad, San Diego, Calif.) (see FIGS. 2a and 2b).

[3] = tested on: homogenate of Caco-2 cells; experiment: Enzymatic stability study in homogenized Caco-2 cells; format: in vitro ADME; details: Caco-2 cell line; graded by number of ♦ (up to 5), key not given
Method: Approximately 1×10^5 cells/mL concentration of cells were seeded onto the 96 well plate. […] The media was changed every other day. 21-28 days old cells were used for the experiments. the media was removed from the wells and each well washed with 100 μL 0.2% EDTA solution followed by washing three times with Hanks' balanced salt solution (HBSS) containing 25 mM Hepes (pH 7.4). Finally, 100 μL of this buffer was placed in each well and the plate cooled in ice. The monolayer of cells in each well was then disrupted by 2×1 second pulses with a Sonics Vibracell ultrasonic processor set at an amplitude of 30. The cell debris was then removed by centrifugation of the plate at 2000 rpm for 5 min. 80 μL cell homogenate supernatant of each well was then transferred to a clean 96 well plate, and 20 μL of HBSS-Hepes was added. Three of the wells' contents were set aside and assayed for total protein content using the Lowry assay. The compounds to be tested were dissolved in HBSS-Hepes buffer to a concentration of 200 μM.
This assay was performed at 37° C. […] The stability assay on each compound was conducted in triplicate and the concentrations averaged for each time point.

T1 sequence (P35372 whole entry): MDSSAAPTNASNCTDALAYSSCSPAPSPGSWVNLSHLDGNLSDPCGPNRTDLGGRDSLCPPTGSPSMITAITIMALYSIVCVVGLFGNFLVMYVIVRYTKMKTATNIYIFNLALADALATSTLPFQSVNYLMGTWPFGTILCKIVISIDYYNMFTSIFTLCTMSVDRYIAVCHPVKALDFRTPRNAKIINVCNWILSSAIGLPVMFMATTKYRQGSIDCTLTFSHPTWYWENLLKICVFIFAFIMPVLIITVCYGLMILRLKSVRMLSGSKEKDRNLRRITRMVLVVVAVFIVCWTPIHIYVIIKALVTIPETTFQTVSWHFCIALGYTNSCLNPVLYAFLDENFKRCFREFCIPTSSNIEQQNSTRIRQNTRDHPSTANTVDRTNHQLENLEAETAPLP

CCCCCCC(N)C=N[C@@H](Cc1ccc(O)cc1)C(=O)N1CCC[C@H]1C(=O)N[C@@H](Cc1c[nH]c2ccccc12)C(=O)N[C@@H](Cc1ccccc1)C(N)=O (some centres unmarked) [Compound 10]
Ki (μ-opioid receptor): 42.4 nM

CCCCCCCCC(N)C(=O)N[C@@H](Cc1c(C)cc(O)cc1C)C(=O)N1CCC[C@H]1C(=O)N[C@@H](Cc1c[nH]c2ccccc12)C(=O)N[C@@H](Cc1ccccc1)C(N)=O (some centres unmarked) [Compound 8] (H-[ξGly(octyl)][Dmt]PWF-NH2)
antinociception / baseline PWT responses, in words (CCI-rats; contralateral hindpaw, CCI-rats, i.v., Endo1 1 mg/kg, Compound 8 0.3-3 mg/kg): did not significantly alter baseline PWT responses; also recorded: no significant antinociception in the contralateral hindpaw | baseline PWT responses, in words (CCI-rats; contralateral hindpaw, drug-naïve CCI-rats, i.v., Endo1 1.6 μmol/kg, Compound 8 1.2 μmol/kg): did not significantly alter baseline PWT responses | anti-nociceptive effect, in words (CCI-rats; contralateral hindpaw, s.c., 0.3-3 mg/kg, vs vehicle): did not produce a significant, dose-dependent anti-nociceptive effect; also recorded: did not produce dose-dependent anti-nociceptive pain relief | extent and duration of anti-allodynia compared with Endo1 (CCI-rats; drug-naïve CCI-rats, ipsilateral hindpaw, i.v.): significantly (p<0.05) larger extent and duration of anti-allodynia | anti-allodynic effect, in words (CCI-rats; ipsilateral hindpaw, CCI-rats, single bolus i.v. doses, vs vehicle): significant, dose-dependent anti-allodynic effect; also recorded: dose-dependent relief of tactile allodynia | anti-allodynic effect, in words (CCI-rats; ipsilateral hindpaw, CCI-rats, single bolus s.c. doses 0.1-10 mg/kg, vs vehicle): significant, dose-dependent anti-allodynic effect; also recorded: dose-dependent relief of tactile allodynia | dose-normalised area under the anti-allodynic response versus time curve (AUC), in words (CCI-rats; ipsilateral hindpaw, i.v., CCI-rats, over 3 h): significantly greater (p<0.05) than that of both Endo1 and vehicle | time of mean peak anti-allodynic response (CCI-rats; ipsilateral hindpaw, i.v., highest dose tested): ~0.5 h | mean duration of action (CCI-rats; ipsilateral hindpaw, i.v., highest dose tested (3 mg/kg)): > 3 h | mean duration of action (CCI-rats; ipsilateral hindpaw, i.v., lower doses (0.1 and 0.3 mg/kg)): 2 to 3 h | time of mean peak anti-allodynic response (CCI-rats; ipsilateral hindpaw, i.v., over doses tested): 0.5 to 1 h | time of mean peak anti-allodynic response (CCI-rats; ipsilateral hindpaw, s.c., 0.1-10 mg/kg): 0.5 to 1 h | time of mean peak anti-allodynic response (CCI-rats; ipsilateral hindpaw, s.c., highest dose tested): ~0.5 h | half-life at 0.7 mg/mL (Plasma stability assay): 41.4 min | Ki (μ-opioid receptor): 0.47 nM | % inhibition of gastrointestinal transit, compared with i.v. morphine ([1]; i.v., 10 mg/kg): did not differ significantly (p>0.05) | average gradient of log dose vs. % inhibition of gastrointestinal motility curve ([1]; single bolus i.v. doses, FIG. 15): lower than the average gradient for the curve corresponding to morphine | inhibition of gastrointestinal motility, in words ([1]; single i.v. bolus, 0.3, 1, 3 and 10 mg/kg): inhibited gastrointestinal motility at all doses assessed | IC50 [2]: 0.0634 nM

CCCCCCCCCCC(N)C(=O)N[C@@H](Cc1ccc(O)cc1)C(=O)N1CCC[C@H]1C(=O)N[C@@H](Cc1c[nH]c2ccccc12)C(=O)N[C@@H](Cc1ccccc1)C(N)=O (some centres unmarked) [Compound 2] (H-[ξGly(decyl)]YPWF-NH2)
Ki (μ-opioid receptor): 35.5 nM | Inhibit c-AMP (%) [2]: 89%

CN1CC[C@]23c4c5ccc(O)c4O[C@H]2[C@@H](O)C=C[C@H]3[C@H]1C5 [morphine, reference compound]
inhibition of gastrointestinal motility, in words ([1]; single i.v. bolus, 1 and 2 mg/kg): did not significantly (p>0.05) inhibit gastrointestinal motility | inhibition of gastrointestinal transit, in words ([1]; single i.v. bolus, 10 and 30 mg/kg): significant (p<0.05) inhibition of gastrointestinal transit

CCCCCCC(NC(=O)[C@H](Cc1ccccc1)NC(=O)[C@H](Cc1c[nH]c2ccccc12)NC(=O)[C@@H]1CCCN1C(=O)[C@@H](N)Cc1ccc(O)cc1)C(N)=O (some centres unmarked) [Compound 19] (H-YPWF[ξAoc(2)]-NH2)
Enzymatic stability 2 h [3]: ♦

CCCCCCC(N)C(=O)N[C@@H](Cc1c(C)cc(O)cc1C)C(=O)N1CCC[C@H]1C(=O)N[C@@H](Cc1c[nH]c2ccccc12)C(=O)N[C@@H](Cc1ccccc1)C(N)=O (single isomer, unassigned) [Compound 7]
half-life at 0.7 mg/mL (Plasma stability assay): 4.55 min | Ki (μ-opioid receptor): 0.071 nM | IC50 [2]: 0.189 nM | Inhibit c-AMP (%) [2]: 153%

CCCCCCCCCCC(N)C(=O)N[C@@H](Cc1c(C)cc(O)cc1C)C(=O)N1CCC[C@H]1C(=O)N[C@@H](Cc1c[nH]c2ccccc12)C(=O)N[C@@H](Cc1ccccc1)C(N)=O (some centres unmarked) [Compound 9] (H-[ξGly(decyl)][Dmt]PWF-NH2)
half-life at 0.7 mg/mL (Plasma stability assay): 20.3 min | Ki (μ-opioid receptor): 0.735 nM | IC50 [2]: 0.928 nM

From US20100130581A1, “COMPOUNDS AND METHODS FOR THE TREATMENT OF PAIN” (THE UNIVERSITY OF QUEENSLAND, priority 2006, published 2010)
